Results published in patent publication US7786141B2 (Vertex Pharmaceuticals Incorporated, priority 2004, dated 2010).

Key:
M1 muscarinic receptor = target: T1, M1 muscarinic receptor (Homo sapiens, UniProt P11229); assay: Functional mobilization of intracellular calcium (FLIPR) in M1-CHO cells; assay type: cell-based; details: Table 4; for Emax: 100% efficacy is the maximum response obtained with the Carbachol control; for M1 Activity: modulating M1 receptor
T1 construct: expressed in transfected cells; host or cells: CHO (M1-CHO)
T1 sequence (P11229 1-460): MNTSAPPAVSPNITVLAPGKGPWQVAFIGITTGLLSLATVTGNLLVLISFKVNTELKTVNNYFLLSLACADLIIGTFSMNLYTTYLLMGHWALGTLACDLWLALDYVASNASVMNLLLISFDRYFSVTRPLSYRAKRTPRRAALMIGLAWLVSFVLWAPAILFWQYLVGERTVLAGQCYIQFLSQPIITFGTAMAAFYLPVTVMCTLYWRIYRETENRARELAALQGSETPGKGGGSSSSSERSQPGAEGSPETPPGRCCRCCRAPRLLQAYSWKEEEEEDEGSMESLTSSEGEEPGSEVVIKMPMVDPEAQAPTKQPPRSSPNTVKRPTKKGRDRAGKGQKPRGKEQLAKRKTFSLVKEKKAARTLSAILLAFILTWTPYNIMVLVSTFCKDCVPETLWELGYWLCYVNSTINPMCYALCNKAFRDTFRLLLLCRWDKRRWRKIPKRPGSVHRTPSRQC
Procedure, shortened: (§1)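 Intracellular calcium rise is measured by FLIPR fluorescence over 60 sec in CHO cells carrying human M1 or M4 receptors. Compounds are tested alone as agonists, or pre-incubated 15 min (or co-applied) ahead of carbachol at its EC80 to detect inhibition.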

M4 muscarinic receptor = target: T2, M4 muscarinic receptor (Homo sapiens, UniProt P08173); assay: Functional mobilization of intracellular calcium (FLIPR) in M4-CHO cells; assay type: cell-based; details: Table 4; for Emax: 100% efficacy is the maximum response obtained with the Carbachol control; for M4 Activity: modulating M4 receptor
T2 construct: expressed in transfected cells; host or cells: CHO (M4-CHO)
T2 sequence (P08173 1-479): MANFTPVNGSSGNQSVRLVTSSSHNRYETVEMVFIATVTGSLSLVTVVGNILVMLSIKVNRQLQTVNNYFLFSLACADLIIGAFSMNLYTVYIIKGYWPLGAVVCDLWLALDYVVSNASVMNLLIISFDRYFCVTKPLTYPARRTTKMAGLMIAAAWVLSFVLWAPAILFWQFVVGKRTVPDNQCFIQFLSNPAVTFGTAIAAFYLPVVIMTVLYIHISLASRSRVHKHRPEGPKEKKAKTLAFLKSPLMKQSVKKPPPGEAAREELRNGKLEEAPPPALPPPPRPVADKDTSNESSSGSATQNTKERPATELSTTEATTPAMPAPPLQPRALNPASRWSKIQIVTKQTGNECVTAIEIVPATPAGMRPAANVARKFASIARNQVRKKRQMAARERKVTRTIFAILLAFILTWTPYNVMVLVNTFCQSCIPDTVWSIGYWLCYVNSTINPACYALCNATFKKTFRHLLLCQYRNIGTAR
Procedure, shortened: as §1

| SMILES | Emax (M1 muscarinic receptor) | M1 Activity (M1 muscarinic receptor) | Emax (M4 muscarinic receptor) | M4 Activity (M4 muscarinic receptor) |
| --- | --- | --- | --- | --- |
| CN(C)C(=O)N1CC2(CCN(C3CCN(C(=O)C4(C(F)(F)F)CC4)CC3)CC2)c2cc(F)ccc21 [compound 727] | 25 to 100% | x (activity was measured to be greater than 5.0 μM) | 25 to 100% | xxx (activity was measured to be less than 2.0 μM) |
| CCOC(=O)N1CCC(N2CCC3(CC2)CN(C(C)=O)c2c(-c4cccnc4)cccc23)CC1 [compound 728] | 25 to 100% | xx (activity was measured to be between 2.0 μM and 5.0 μM) | < 25% | x (activity was measured to be greater than 5.0 μM) |
| CN(C)C(=O)N1CC2(CCN(C3CCN(C(=O)CC#N)CC3)CC2)c2cc(F)ccc21 [compound 729] | < 25% | x (activity was measured to be greater than 5.0 μM) | < 25% | x (activity was measured to be greater than 5.0 μM) |
| CCOC(=O)N1CCC(N2CCC3(CC2)CN(C(=O)[C@H](O)CC)c2ccc(F)cc23)CC1 [compound 730] | 25 to 100% | xxx (activity was measured to be less than 2.0 μM) | 25 to 100% | xxx (activity was measured to be less than 2.0 μM) |
| CC(=O)NC1CCC2(CCN(CCC3CCCN(C(=O)OC(C)C)C3)CC2)c2ccccc21 (stereo not shown) [compound 731] | < 25% | xxx (activity was measured to be less than 2.0 μM) | < 25% | x (activity was measured to be greater than 5.0 μM) |
| O=C1CC2(CCN([C@@H]3C[C@H]4CC[C@@H]3C4)CC2)c2ccccc21 [compound 732] | 25 to 100% | x (activity was measured to be greater than 5.0 μM) | 25 to 100% | xx (activity was measured to be between 2.0 μM and 5.0 μM) |
| CN(C)C(=O)CN1CC2(CCN(C[C@H]3C[C@H]4C=CC3C4)CC2)c2cc(F)ccc21 [compound 734] | 25 to 100% | xxx (activity was measured to be less than 2.0 μM) | 25 to 100% | xxx (activity was measured to be less than 2.0 μM) |
| COc1cccc(N2CCC(N3CCC4(CC3)CN(C(=O)N(C)C)c3ccc(F)cc34)CC2)c1 [compound 735] | 25 to 100% | xx (activity was measured to be between 2.0 μM and 5.0 μM) | 25 to 100% | xxx (activity was measured to be less than 2.0 μM) |
| COCCN1CC2(CCN([C@@H]3C[C@H]4CCC3C4)CC2)c2cc(C)ccc21 [compound 737] | 25 to 100% | xx (activity was measured to be between 2.0 μM and 5.0 μM) | 25 to 100% | xxx (activity was measured to be less than 2.0 μM) |
| CC(=O)N[C@H]1CCC2(CCN(CC3CC4C=CC3C4)CC2)c2ccccc21 (stereo partly shown) [compound 740] | 25 to 100% | xxx (activity was measured to be less than 2.0 μM) | 25 to 100% | xxx (activity was measured to be less than 2.0 μM) |
| CC(=O)NC1CCC2(CCN(CCC3CCCN(C(=O)OCC(C)C)C3)CC2)c2ccccc21 (stereo not shown) [compound 741] | < 25% | x (activity was measured to be greater than 5.0 μM) | < 25% | x (activity was measured to be greater than 5.0 μM) |
| CC(=O)N1CC2(CCN(C3CC4CCC(C3)N4C(=O)OC(C)C)CC2)c2ccccc21 (stereo not shown) [compound 742] | 25 to 100% | xxx (activity was measured to be less than 2.0 μM) | 25 to 100% | xxx (activity was measured to be less than 2.0 μM) |
| CCC(C)C(=O)N1C2CCC1CC(N1CCC3(CC1)CN(C(C)=O)c1ccccc13)C2 (stereo not shown) [compound 743] | < 25% | x (activity was measured to be greater than 5.0 μM) | < 25% | x (activity was measured to be greater than 5.0 μM) |
| O=C(N[C@H]1CCC2(CCN(C3CC4CCC(C4)C3)CC2)c2ccccc21)C1CC1 (stereo partly shown) [compound 744] | 25 to 100% | xxx (activity was measured to be less than 2.0 μM) | 25 to 100% | xxx (activity was measured to be less than 2.0 μM) |
| CCOC(=O)N1C2CCC1CC(N1CCCC3(CC1)CN(C(C)=O)c1ccc(F)cc13)C2 (stereo not shown) [compound 746] | 25 to 100% | xxx (activity was measured to be less than 2.0 μM) | 25 to 100% | xxx (activity was measured to be less than 2.0 μM) |
| C#CCCOC(=O)N1C2CCC1CC(N1CCC3(CC1)CN(C(C)=O)c1ccccc13)C2 (stereo not shown) [compound 747] | 25 to 100% | xxx (activity was measured to be less than 2.0 μM) | 25 to 100% | xxx (activity was measured to be less than 2.0 μM) |
| CCCOC(=O)N1CCCC(N2CCC3(CC2)CN(C(=O)N(C)C)c2ccc(F)cc23)CC1 (stereo not shown) [compound 749] | 25 to 100% | xxx (activity was measured to be less than 2.0 μM) | 25 to 100% | xxx (activity was measured to be less than 2.0 μM) |
| CCOC(=O)N1CCC(N2CCC3(CC2)CN(C(=O)N(CC)CC)c2ccccc23)CC1 [compound 750] | 25 to 100% | xxx (activity was measured to be less than 2.0 μM) | 25 to 100% | xxx (activity was measured to be less than 2.0 μM) |
| CCOC(=O)N1CCC(N2CCC3(CC2)CN(C2CCCCC2=O)c2ccc(F)cc23)CC1 (stereo not shown) [compound 751] | 25 to 100% | xxx (activity was measured to be less than 2.0 μM) | 25 to 100% | xxx (activity was measured to be less than 2.0 μM) |
| CCOC(=O)N1CCC(N2CCC3(CC2)CN(c2cnccn2)c2ccc(F)cc23)CC1 [compound 752] | 25 to 100% | xxx (activity was measured to be less than 2.0 μM) | 25 to 100% | xxx (activity was measured to be less than 2.0 μM) |
| COC(=O)N1CCC(N2CCC3(CC2)CN(C(C)=O)c2ccccc23)CC1 [compound 753] | 25 to 100% | xx (activity was measured to be between 2.0 μM and 5.0 μM) | 25 to 100% | xx (activity was measured to be between 2.0 μM and 5.0 μM) |
| CCOC(=O)N1C2CCC1CC(N1CCC3(CC1)CN(C(C)=O)c1ccc(OC)cc13)C2 (stereo not shown) [compound 754] | 25 to 100% | xxx (activity was measured to be less than 2.0 μM) | 25 to 100% | xxx (activity was measured to be less than 2.0 μM) |
| CCN(CC)C(=O)N[C@H]1CC2(CCN(C3CC4CC[C@@H]3C4)CC2)c2ccccc21 (stereo partly shown) [compound 755] | < 25% | x (activity was measured to be greater than 5.0 μM) | 25 to 100% | xxx (activity was measured to be less than 2.0 μM) |
| CCOC(=O)N1CCC(N2CCC3(CC2)CN(C2CCCC2=O)c2ccc(F)cc23)CC1 (stereo not shown) [compound 756] | 25 to 100% | xxx (activity was measured to be less than 2.0 μM) | 25 to 100% | xxx (activity was measured to be less than 2.0 μM) |
| CC(=O)N1CC2(CCN(CC3CCN(C(=O)OC4CCC4)CC3)CC2)c2cc(C)ccc21 [compound 757] | < 25% | x (activity was measured to be greater than 5.0 μM) | < 25% | x (activity was measured to be greater than 5.0 μM) |
| CC1(C)C(=O)c2ccccc2C12CCN([C@@H]1C[C@@H]3CC[C@H]1C3)CC2 [compound 758] | < 25% | x (activity was measured to be greater than 5.0 μM) | < 25% | x (activity was measured to be greater than 5.0 μM) |
| CC(=O)N[C@H]1CC2(CCN(C3CCC(C(C)C)CC3)CC2)c2ccccc21 (stereo partly shown) [compound 759] | < 25% | x (activity was measured to be greater than 5.0 μM) | < 25% | x (activity was measured to be greater than 5.0 μM) |
| COc1ccc(N2CCC(N3CCC4(CC3)CN(C(=O)N(C)C)c3ccc(F)cc34)CC2)nn1 [compound 760] | 25 to 100% | x (activity was measured to be greater than 5.0 μM) | 25 to 100% | xxx (activity was measured to be less than 2.0 μM) |
